In patent US8883963B2 (Cadila Healthcare Limited, priority 2007, dated 2014):
Starred links: 1 amine or outer side, 2 acyl side, 3 side chain; linkers in the order of their positions; H or OH if unused. Non-standard residues stand in square brackets, D forms with d. Residues, ends and D or L forms follow the SMILES beside them. ξ: configuration not given here. *: point of attachment. ξNMeBip(2'-Et,4'-OMe) = CCc1cc(OC)ccc1-c1ccc(CC(NC)C(=O)O)cc1; ξBip(2'-Et-4'-OMe) = CCc1cc(OC)ccc1-c1ccc(CC(N)C(=O)O)cc1; X6 = O=C(C(CCCc1ccc(Cl)cc1Cl)N[*:1])[*:2]; X11 = CN(C(CCCc1ccccc1)C(=O)[*:2])[*:1]; ξαMePhe(2-F) = CC(N)(Cc1ccccc1F)C(=O)O; NMeD = CN[C@@H](CC(=O)O)C(=O)O; aThr = C[C@H](O)[C@H](N)C(=O)O; ξhhPhe = NC(CCCc1ccccc1)C(=O)O; ξαMeP = CC1(C(=O)O)CCCN1; Aib = CC(C)(N)C(=O)O; Moc = COC(=O)*

Target: T1, human glucagon receptor (Homo sapiens, UniProt P47871)
T1 construct: The full-length cDNA was cloned in pcDNA3.1 (Invitrogen); expressed in transfected cells
T1 sequence (P47871 26-477): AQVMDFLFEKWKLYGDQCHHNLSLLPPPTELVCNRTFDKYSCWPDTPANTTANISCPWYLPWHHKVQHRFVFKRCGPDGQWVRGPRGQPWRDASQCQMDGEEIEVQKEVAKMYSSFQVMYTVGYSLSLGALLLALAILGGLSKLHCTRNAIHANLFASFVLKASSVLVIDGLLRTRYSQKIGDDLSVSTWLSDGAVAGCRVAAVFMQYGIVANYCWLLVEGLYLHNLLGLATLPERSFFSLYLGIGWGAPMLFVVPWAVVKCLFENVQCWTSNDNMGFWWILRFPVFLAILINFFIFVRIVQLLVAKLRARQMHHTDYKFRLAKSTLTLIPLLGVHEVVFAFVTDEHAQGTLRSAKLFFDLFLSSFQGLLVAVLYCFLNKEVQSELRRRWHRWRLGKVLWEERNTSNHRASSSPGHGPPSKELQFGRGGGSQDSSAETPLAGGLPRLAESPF
Assay: In vitro human glucagon antagonist activity (inhibition of cAMP production) in CHO/human glucagon R cells
Format: cell-based
Conditions: with saturated concentration of glucagon peptide
Experimental: The CHO-K1 cells (CRL 9618) were obtained from American Type Culture Collection (Rockville, Md.). CHO cells were grown in Ham's F12 medium containing L-Glutamine (2 mM), HEPES (25 mM), NaHCO3 (1.1 g/L) and supplemented with newborn Calf Serum (NBCS; 10%), Penicillin (50 U/ml (v/v)) and Streptomycin (50 ug/ml (v/v)). Cells were split every 3 days 1:8.
The full-length cDNA was cloned in pcDNA3.1 (Invitrogen). […] Clones expressing the receptor were generated by G418 (800 μg/ml active, Sigma) selection. The stable clones were thereafter maintained at 500 ug/ml (G418). The selected clone was used between passages 9-25 for cAMP assays.
The cells were trypsinized using 2 ml of TPVG (0.25% trypsin, 0.53 mM EDTA, 1.38-mM glucose). The trypsin was inactivated using Ham's F12 medium containing 10% NBCS and the cells were suspended in 2 ml of complete medium. […] The medium was aspirated off from the 12 well plate and the cells were washed once using Ham's F12 (plain). The cells were incubated at 37° C. with 500 ul of Ham's F12+1% BSA+0.125 mM RO-20 for 30 min. […] After the incubation, the medium was removed and cells were washed once with plain Ham's F12. Subsequently, the cells were lysed by adding 500 ul of ice cold 0.1 N HCl to each well and shaking for 30 minutes at 200 rpm. The cells were then scrapped, the lysate was collected in micro centrifuge tubes and centrifuged at 12000 rpm for 10 min to remove the debris. 300 ul of supernatant from each micro-centrifuge tube was then removed into a glass tube and dried under N2 for 30 min, for cAMP estimation. The total cAMP was estimated from the sample according to the manufacturer's protocol using Cyclic AMP immunoassay kit (R&D systems, Minneapolis. MN). The remaining supernatant is used to determine the protein concentration using micro BCA (Sigma). Data is calculated as percent of control (Vehicle: water) and expressed as Mean+SD.

| SMILES | Human Glucagon receptor antagonistic activity shown as inhibition of cAMP production of Glucagon peptide (1 nM test compound) [pmol/ml/μg prt] | Human Glucagon receptor antagonistic activity shown as inhibition of cAMP production of Glucagon peptide (10 nM test compound) [pmol/ml/μg prt] | Human Glucagon receptor antagonistic activity shown as inhibition of cAMP production of Glucagon peptide (100 nM test compound) [pmol/ml/μg prt] | Human Glucagon receptor antagonistic activity shown as inhibition of cAMP production of Glucagon peptide (1 μM test compound) [pmol/ml/μg prt] | Human Glucagon receptor antagonistic activity shown as inhibition of cAMP production of Glucagon peptide (10 μM test compound) [pmol/ml/μg prt] |
| --- | --- | --- | --- | --- | --- |
| CCc1cc(OC)ccc1-c1ccc(CC(NC(=O)[C@H](CC(=O)O)NC(=O)[C@H](CO)NC(=O)[C@@H](NC(=O)[C@H](Cc2ccccc2)NC(=O)[C@@H](NC(=O)CNC(=O)[C@H](CCC(N)=O)NC(=O)[C@H](CO)NC(=O)[C@@H](N)Cc2c[nH]cn2)[C@@H](C)O)[C@@H](C)O)C(=O)NC(CCCc2ccccc2)C(N)=O)cc1 (single isomer, unassigned) [compound 5] | 6 ± 0.02 | 5 ± 0.04 | 3 ± 0.14 | 0 | 0 |
| CCc1cc(OC)ccc1-c1ccc(CC(NC(=O)[C@H](CC(=O)O)NC(=O)[C@H](CO)NC(=O)[C@@H](NC(=O)[C@H](Cc2ccccc2)NC(=O)[C@@H](NC(=O)CNC(=O)[C@H](CCC(N)=O)NC(=O)C2(C)CCCN2C(=O)[C@@H](N)Cc2c[nH]cn2)[C@@H](C)O)[C@@H](C)O)C(=O)NC(CCCc2cccc(Cl)c2)C(N)=O)cc1 (single isomer, unassigned) [compound 11] | 3 ± 0.04 | 0 | 0 | 0 | 0 |
| CCc1cc(OC)ccc1-c1ccc(CC(NC(=O)[C@H](CC(=O)O)NC(=O)[C@H](CO)NC(=O)[C@@H](NC(=O)[C@H](Cc2ccccc2)NC(=O)[C@@H](NC(=O)CNC(=O)[C@H](CCC(N)=O)NC(=O)C2(NC(=O)[C@@H](N)Cc3c[nH]cn3)CCCC2)[C@@H](C)O)[C@@H](C)O)C(=O)NC(CCCc2ccc(Cl)cc2C)C(N)=O)cc1 (single isomer, unassigned) [compound 28] | 14 ± 0.02 | 11 ± 0.03 | 7 ± 0.22 | 3 ± 0.12 | 0 |
| CCc1cc(OC)ccc1-c1ccc(CC(NC(=S)[C@H](CC(=O)O)NC(=O)[C@H](CO)NC(=O)[C@@H](NC(=O)C(C)(Cc2ccccc2F)NC(=O)[C@@H](NC(=O)CNC(=O)[C@H](CCC(N)=O)NC(=O)C(C)(C)NC(=O)[C@H](Cc2c[nH]cn2)NC(=O)OC)[C@@H](C)O)[C@@H](C)O)C(=S)NC(CCCc2ccccc2)C(N)=O)cc1 (single isomer, unassigned) [compound 170] | 6 ± 0.05 | 5 ± 0.04 | 2 ± 0.16 | 0 | 0 |
| CCc1cc(OC)ccc1-c1ccc(CC(CNC(CCCc2ccccc2F)C(N)=O)NC(=O)[C@H](CC(=O)O)NC(=O)[C@H](CO)NC(=O)[C@@H](NC(=O)C(C)(Cc2ccccc2F)NC(=O)[C@@H](NC(=O)CNC(=O)[C@H](CCC(N)=O)NC(=O)C(C)(C)NC(=O)[C@H](Cc2c[nH]cn2)NC(=O)OC)[C@H](C)O)[C@H](C)O)cc1 (single isomer, unassigned) [compound 188] | 5 ± 0.04 | 3 ± 0.15 | 1 ± 0.15 | 0 | 0 |
| CCc1cc(OC)ccc1-c1ccc(CC(CNC(CCCc2ccccc2F)C(N)=O)NC[C@H](CC(=O)O)NC(=O)[C@H](CO)NC(=O)[C@@H](NC(=O)C(C)(Cc2ccccc2F)NC(=O)[C@@H](NC(=O)CNC(=O)[C@H](CCC(N)=O)NC(=O)C(C)(C)NC(=O)[C@H](Cc2c[nH]cn2)NC(C)=O)[C@H](C)O)[C@H](C)O)cc1 (single isomer, unassigned) [compound 199] | 4 ± 0.06 | 3 ± 0.11 | 0 | 0 | 0 |
| CCc1cc(OC)ccc1-c1ccc(CC(NC(=O)[C@H](CC(=O)O)NC(=O)[C@H](CO)NC(=O)[C@@H](NC(=O)[C@H](Cc2ccccc2)NC(=O)[C@@H](NC(=O)CNC(=O)[C@H](CCC(N)=O)NC(=O)C2(C)CCCN2C(=O)[C@@H](N)Cc2c[nH]cn2)[C@@H](C)O)[C@@H](C)O)C(=O)NC(CCCc2ccccc2)C(N)=O)cc1 (stereo partly drawn) [compound 9] (H-H[ξαMeP]QGTFTSD[ξBip(2'-Et-4'-OMe)][ξhhPhe]-NH2) | 5 ± 0.02 | 3 ± 0.15 | 0 | 0 | 0 |
| CCc1cc(OC)ccc1-c1ccc(CC(NC(=O)[C@H](CC(=O)O)NC(=O)[C@H](CO)NC(=O)[C@@H](NC(=O)[C@H](Cc2ccccc2)NC(=O)[C@@H](NC(=O)CNC(=O)[C@H](CCC(N)=O)NC(=O)[C@H](CO)NC(=O)[C@@H](N)Cc2c[nH]cn2)[C@@H](C)O)[C@@H](C)O)C(=O)NC(CCCc2ccc(Cl)cc2Cl)C(N)=O)cc1 (stereo partly drawn) [compound 51] (H-HSQGTFTSD[ξBip(2'-Et-4'-OMe)][X6]-NH2) | 5 ± 0.09 | 3 ± 0.11 | 0 | 0 | 0 |
| CCc1cc(OC)ccc1-c1ccc(CC(C(=O)N(C)C(CCCc2ccccc2)C(N)=O)N(C)C(=O)[C@H](CC(=O)O)N(C)C(=O)[C@H](CO)NC(=O)[C@@H](NC(=O)C(C)(Cc2ccccc2F)NC(=O)[C@@H](NC(=O)CNC(=O)[C@H](CCC(N)=O)NC(=O)C(C)(C)NC(=O)[C@H](Cc2c[nH]cn2)NC(=O)OC)[C@H](C)O)[C@H](C)O)cc1 (stereo partly drawn) [compound 150] (Moc-H[Aib]QG[aThr][ξαMePhe(2-F)][aThr]S[NMeD][ξNMeBip(2'-Et,4'-OMe)][X11]-NH2) | 10 ± 0.12 | 8 ± 0.02 | 6 ± 0.04 | 4 ± 0.05 | 1 ± 0.02 |
